Measurements published in patent US12696901B2, “Pesticidally active heterocyclic derivatives with sulfur containing substituents” (SYNGENTA CROP PROTECTION AG, priority 2020, dated 2026).

Tests used:
Format in all cases: in vivo
[1] = test system: Plutella xylostella (Diamond Back Moth); assay: Activity against Plutella xylostella (diamond back moth), treated artificial diet; settings: 192 h, application rate 200 ppm, eggs, 8 days after infestation, read-out: effect in at least one of the two categories (mortality or growth inhibition)
Method: Example B5: Activity Against Plutella xylostella (Diamond Back Moth)
24-well microtiter plates with artificial diet were treated with aqueous test solutions prepared from 10,000 ppm DMSO stock solutions by pipetting. After drying, Plutella eggs were pipetted through a plastic stencil onto a gel blotting paper and the plate was closed with it. The samples were assessed for mortality and growth inhibition in comparison to untreated samples 8 days after infestation.

[2] = test system: Spodoptera littoralis (Egyptian Cotton Leaf Worm); assay: Activity against Spodoptera littoralis (Egyptian cotton leaf worm), sprayed cotton leaf discs; settings: foliar, 72 h, application rate 200 ppm, L1 larvae, 3 days after infestation
Method: Example B7: Activity Against Spodoptera littoralis (Egyptian Cotton Leaf Worm)
Cotton leaf discs were placed onto agar in 24-well microtiter plates and sprayed with aqueous test solutions prepared from 10,000 ppm DMSO stock solutions. After drying the leaf discs were infested with five L1 larvae. The samples were assessed for mortality, anti-feeding effect, and growth inhibition in comparison to untreated samples 3 days after infestation. Control of Spodoptera littoralis by a test sample is given when at least one of the categories mortality, anti-feedant effect, and growth inhibition is higher than the untreated sample.

[3] = test system: Chilo suppressalis (Striped Rice Stemborer); assay: Activity against Chilo suppressalis (striped rice stemborer), treated artificial diet; settings: 144 h, application rate 200 ppm, L2 larvae, 6 days after infestation
Method: Example B10: Activity Against Chilo suppressalis (Striped Rice Stemborer)
24-well microtiter plates with artificial diet were treated with aqueous test solutions prepared from 10,000 ppm DMSO stock solutions by pipetting. After drying, the plates were infested with L2 larvae (6-8 per well). The samples were assessed for mortality, anti-feeding effect, and growth inhibition in comparison to untreated samples 6 days after infestation. Control of Chilo suppressalis by a test sample is given when at least one of the categories mortality, anti-feedant effect, and growth inhibition is higher than the untreated sample.

[4] = test system: Diabrotica balteata (Corn Root Worm); assay: Activity against Diabrotica balteata (corn root worm), sprayed maize sprouts on agar; settings: 96 h, application rate 200 ppm, L2 larvae, 4 days after infestation, read-out: effect in at least one of the two categories (mortality or growth inhibition)
Method: Example B2: Activity Against Diabrotica balteata (Corn Root Worm)
Maize sprouts placed onto an agar layer in 24-well microtiter plates were treated with aqueous test solutions prepared from 10,000 ppm DMSO stock solutions by spraying. After drying, the plates were infested with L2 larvae (6 to 10 per well). The samples were assessed for mortality and growth inhibition in comparison to untreated samples 4 days after infestation.

[5] = test system: Diabrotica balteata (Corn Root Worm); assay: Activity against Diabrotica balteata (corn root worm), corn seedlings on filter paper in cups; settings: 120 h, application rate 3 ppm, L2 larva, 5 days after treatment, read-out: effect in at least one of the two categories (mortality or growth inhibition)
Method: Example B12: Activity Against Diabrotica Balteata (Corn Root Worm)
Three corn seedlings were placed on wetted filter paper in plastic cups, and 3 ml of diluted test solutions were pipetted onto them. The cups were infested with 10 L2 larva and checked for mortality and growth regulation 5 days after treatment.

[6] = test system: Carpocapsa (Cydia) Pomonella (Codling Moth); assay: Activity against Carpocapsa (Cydia) pomonella (codling moth), sprayed diet cubes; settings: 336 h, application rate 12.5 ppm, L1 larvae, 14 days after infestation, read-out: effect in at least one of the two categories (mortality or growth inhibition)
Method: Example B11: Activity Against Carpocapsa (Cydia) Pomonella (Codling Moth)
Diet cubes coated with paraffin were sprayed with diluted test solutions in an application chamber. After drying off the treated cubes (10 replicates) were infested with 1 L1 larvae. Samples were incubated at 26-27° C. and checked 14 days after infestation for mortality and growth inhibition. The following compounds gave an effect of at least 80% in at least one of the two categories (mortality or growth inhibition) at an application rate of 12.5 ppm: P1, P2, P3, P4, P5, P6, P10, P11, P12, P14, P15, P16, P17, P19, P20, P21, P22, P24, P27, P29, P30, P33, P34, P35.

[7] = test system: Euschistus heros (Neotropical Brown Stink Bug); assay: Activity against Euschistus heros (neotropical brown stink bug), sprayed soybean leaves; settings: 120 h, application rate 200 ppm, N2 nymphs, 5 days after infestation, read-out: effect in at least one of the two categories (mortality or growth inhibition)
Method: Example B3: Activity Against Euschistus heros (Neotropical Brown Stink Bug)
Soybean leaves on agar in 24-well microtiter plates were sprayed with aqueous test solutions prepared from 10,000 ppm DMSO stock solutions. After drying the leaves were infested with N2 nymphs. The samples were assessed for mortality and growth inhibition in comparison to untreated samples 5 days after infestation.

[8] = test system: Myzus persicae (Green Peach Aphid); assay: Activity against Myzus persicae (green peach aphid), feeding/contact activity; settings: 144 h, application rate 200 ppm, mixed ages, 6 days after infestation
Method: Example B6: Activity Against Myzus persicae (Green Peach Aphid) Feeding/Contact Activity
Sunflower leaf discs were placed onto agar in a 24-well microtiter plate and sprayed with aqueous test solutions prepared from 10,000 ppm DMSO stock solutions. After drying, the leaf discs were infested with an aphid population of mixed ages. The samples were assessed for mortality 6 days after infestation.

CCS(=O)(=O)c1c(N2Cc3ncc(C(F)(F)F)cc3C2=O)nc2ccc(OCC3(C#N)CC3)cn12 [Compound P31, 1-[[3-ethylsulfonyl-2-[5-oxo-3-(trifluoromethyl)-7H-pyrrolo[3,4-b]pyridin-6-yl]imidazo [1,2-a]pyridin-6-yl]oxymethyl] cyclopropane-carbonitrile]
≥ 80%: percent effect (mortality or growth inhibition) at 200 ppm [1] | percent control (mortality, anti-feedant effect or growth inhibition) at 200 ppm [2] | percent control (mortality, anti-feedant effect or growth inhibition) at 200 ppm [3] | percent effect (mortality or growth inhibition) at 200 ppm [4]

CCS(=O)(=O)c1c(N2Cc3ccc(S(=O)(=O)C(F)(F)F)cc3C2=O)nc2ccc(C(F)(F)F)cn12 [Compound P32, 2-[3-ethylsulfonyl-6-(trifluoromethyl)imidazo[1,2-a]pyridin-2-yl]-6-(trifluoromethyl-sulfonyl) isoindolin-1-one]
≥ 80%: percent effect (mortality or growth inhibition) at 200 ppm [1] | percent control (mortality, anti-feedant effect or growth inhibition) at 200 ppm [2] | percent effect (mortality or growth inhibition) at 3 ppm [5] | percent control (mortality, anti-feedant effect or growth inhibition) at 200 ppm [3] | percent effect (mortality or growth inhibition) at 200 ppm [4]

CCS(=O)(=O)c1c(N2Cc3ncc(C(F)(F)F)cc3C2=O)nc2ccc(C(C)(F)F)cn12 [Compound P18, 6-[6-(1,1-difluoroethyl)-3-ethylsulfonyl-imidazo [1,2-a]pyridin-2-yl]-3-(trifluoromethyl)-7H-pyrrolo[3,4-b]pyridin-5-one]
≥ 80%: percent effect (mortality or growth inhibition) at 3 ppm [5]

CCS(=O)(=O)c1c(N2Cc3ncc(C(F)(F)F)cc3C2=O)nc2ccc(OC(C)C)cn12 [Compound P9, 6-(3-ethylsulfonyl-6-isopropoxy-imidazo [1,2-a]pyridin-2-yl)-3-(trifluoromethyl)-7H-pyrrolo[3,4-b] pyridin-5-one]
≥ 80%: percent control (mortality, anti-feedant effect or growth inhibition) at 200 ppm [2]

CCS(=O)(=O)c1c(N2Cc3ncc(C(F)(F)F)cc3C2=O)nc2cc(C3CC3)ccn12 [Compound P24, 6-(7-cyclopropyl-3-ethylsulfonyl-imidazo[1,2-a]pyridin-2-yl)-3-(trifluoromethyl)-7H-pyrrolo[3,4-b]pyridin-5-one]
≥ 80%: percent effect (mortality or growth inhibition) at 12.5 ppm [6] | percent effect (mortality or growth inhibition) at 200 ppm [7] | percent effect (mortality or growth inhibition) at 200 ppm [1] | percent control (mortality, anti-feedant effect or growth inhibition) at 200 ppm [2] | percent effect (mortality or growth inhibition) at 3 ppm [5] | mortality at 200 ppm [8] | percent control (mortality, anti-feedant effect or growth inhibition) at 200 ppm [3] | percent effect (mortality or growth inhibition) at 200 ppm [4]

CCS(=O)(=O)c1c(N2Cc3ncc(C(F)(F)F)cc3C2=O)nc2ccc(OC)cn12 [Compound P8, 6-(3-ethylsulfonyl-6-methoxy-imidazo [1,2-a]pyridin-2-yl)-3-(trifluoromethyl)-7H-pyrrolo[3,4-b] pyridin-5-one]
≥ 80%: percent effect (mortality or growth inhibition) at 200 ppm [7] | percent effect (mortality or growth inhibition) at 200 ppm [1] | percent control (mortality, anti-feedant effect or growth inhibition) at 200 ppm [2] | percent effect (mortality or growth inhibition) at 200 ppm [4]

CCS(=O)(=O)c1c(N2Cc3ccc(OC(F)(F)F)cc3C2=O)nc2ccc(Br)cn12 [Compound P29, 2-(6-bromo-3-ethylsulfonyl-imidazo [1,2-a]pyridin-2-yl)-6-(trifluoromethoxy) isoindolin-1-one]
≥ 80%: percent effect (mortality or growth inhibition) at 12.5 ppm [6] | percent effect (mortality or growth inhibition) at 200 ppm [1] | percent control (mortality, anti-feedant effect or growth inhibition) at 200 ppm [2] | percent effect (mortality or growth inhibition) at 3 ppm [5] | mortality at 200 ppm [8] | percent control (mortality, anti-feedant effect or growth inhibition) at 200 ppm [3] | percent effect (mortality or growth inhibition) at 200 ppm [4]

CCS(=O)(=O)c1c(N2Cc3ccc(S(=O)(=O)C(F)(F)F)cc3C2=O)nc2ccc(Br)cn12 [Compound P30, 2-(6-bromo-3-ethylsulfonyl-imidazo[1,2-a]pyridin-2-yl)-6-(trifluoromethyl-sulfonyl) isoindolin-1-one]
≥ 80%: percent effect (mortality or growth inhibition) at 12.5 ppm [6] | percent effect (mortality or growth inhibition) at 200 ppm [1] | percent control (mortality, anti-feedant effect or growth inhibition) at 200 ppm [2] | percent effect (mortality or growth inhibition) at 3 ppm [5] | percent control (mortality, anti-feedant effect or growth inhibition) at 200 ppm [3] | percent effect (mortality or growth inhibition) at 200 ppm [4]

CCS(=O)(=O)c1c(N2Cc3ncc(C(F)(F)F)cc3C2=O)nc2cc(Br)ccn12 [Compound P22, 6-(7-bromo-3-ethylsulfonyl-imidazo[1,2-a]pyridin-2-yl)-3-(trifluoromethyl)-7H-pyrrolo[3,4-b]pyridin-5-one]
≥ 80%: percent effect (mortality or growth inhibition) at 12.5 ppm [6] | percent effect (mortality or growth inhibition) at 200 ppm [1] | percent control (mortality, anti-feedant effect or growth inhibition) at 200 ppm [2] | percent effect (mortality or growth inhibition) at 3 ppm [5] | mortality at 200 ppm [8] | percent control (mortality, anti-feedant effect or growth inhibition) at 200 ppm [3] | percent effect (mortality or growth inhibition) at 200 ppm [4]

CCS(=O)(=O)c1c(N2Cc3ncc(C(F)(F)F)cc3C2=O)nc2cc(C(F)(F)F)ccn12 [Compound P2, 6-[3-ethylsulfonyl-7-(trifluoromethyl)imidazo[1,2-a]pyridin-2-yl]-3-(trifluoromethyl)-7H-pyrrolo[3,4-b]pyridin-5-one]
≥ 80%: percent effect (mortality or growth inhibition) at 12.5 ppm [6] | percent effect (mortality or growth inhibition) at 200 ppm [1] | percent control (mortality, anti-feedant effect or growth inhibition) at 200 ppm [2] | percent effect (mortality or growth inhibition) at 3 ppm [5] | mortality at 200 ppm [8] | percent effect (mortality or growth inhibition) at 200 ppm [4]

CCS(=O)(=O)c1c(N2Cc3ccc(OC(F)(F)F)cc3C2=O)nc2cc(OCC(F)(F)F)ccn12 [Compound P28, 2-[3-ethylsulfonyl-7-(2,2,2-trifluoroethoxy)imidazo[1,2-a]pyridin-2-yl]-6-(trifluoromethoxy) isoindolin-1-one]
≥ 80%: percent effect (mortality or growth inhibition) at 3 ppm [5]

CCS(=O)(=O)c1c(N2Cc3ccc(OC(F)F)cc3C2=O)nc2ccc(C(F)(F)F)cn12 [Compound P34, 6-(difluoromethoxy)-2-[3-ethylsulfonyl-6-(trifluoromethyl)imidazo[1,2-a]pyridin-2-yl]isoindolin-1-one]
≥ 80%: percent effect (mortality or growth inhibition) at 12.5 ppm [6] | percent effect (mortality or growth inhibition) at 200 ppm [1] | percent control (mortality, anti-feedant effect or growth inhibition) at 200 ppm [2] | percent effect (mortality or growth inhibition) at 3 ppm [5] | mortality at 200 ppm [8] | percent control (mortality, anti-feedant effect or growth inhibition) at 200 ppm [3] | percent effect (mortality or growth inhibition) at 200 ppm [4]

CCS(=O)(=O)c1c(N2Cc3ncc(C(F)(F)F)cc3C2=O)nc2ccc(OCC(F)(F)F)cn12 [Compound P11, 6-[3-ethylsulfonyl-6-(2,2,2-trifluoroethoxy)imidazo[1,2-a]pyridin-2-yl]-3-(trifluoromethyl)-7H-pyrrolo[3,4-b]pyridin-5-one]
≥ 80%: percent effect (mortality or growth inhibition) at 12.5 ppm [6] | percent effect (mortality or growth inhibition) at 200 ppm [1] | percent control (mortality, anti-feedant effect or growth inhibition) at 200 ppm [2] | percent effect (mortality or growth inhibition) at 3 ppm [5] | mortality at 200 ppm [8] | percent control (mortality, anti-feedant effect or growth inhibition) at 200 ppm [3] | percent effect (mortality or growth inhibition) at 200 ppm [4]
